Measurements: patent US12503438B2, “Compounds for the treatment of kinase-dependent disorders” (Exelixis, Inc., priority 2019, dated 2025)

What was measured:
Human Mer = target: T1, Human Mer (Homo sapiens, UniProt Q12866); assay: Human Mer kinase assay (33P-phosphoryl transfer radiometric, KinaseProfiler); conditions: biochemical activity; 10 μM ATP
T1 construct: Human Mer (residues R557-E882 with H628Q and R794A, 0.7 nM); purchased Eurofins Pharma Discovery Services UK Limited (KinaseProfiler service)
T1 sequence (Q12866 557-882 limits assumed): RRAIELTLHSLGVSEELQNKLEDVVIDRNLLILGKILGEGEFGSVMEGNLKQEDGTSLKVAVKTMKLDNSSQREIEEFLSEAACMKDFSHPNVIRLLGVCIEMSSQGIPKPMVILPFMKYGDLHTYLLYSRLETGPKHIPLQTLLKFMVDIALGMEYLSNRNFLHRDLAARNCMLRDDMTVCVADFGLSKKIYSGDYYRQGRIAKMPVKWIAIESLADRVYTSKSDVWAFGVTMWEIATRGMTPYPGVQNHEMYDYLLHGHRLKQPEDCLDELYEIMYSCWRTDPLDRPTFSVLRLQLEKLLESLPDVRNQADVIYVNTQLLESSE
Procedure, shortened: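 Radiometric filter-binding assay with human Mer R557-E882 (H628Q/R794A; 0.7 nM) in MOPS pH 7.0. Nine half-log compound concentrations (top 1 μM, 2% DMSO) gave IC50 by variable-slope sigmoidal fit.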

Met [1] = target: T2, Met (Homo sapiens, UniProt P08581); assay: Met autophosphorylation ELISA in PC-3 cells; format: cell-based; parameters: endogenous in cells; host or cells: PC-3 prostate cancer cells (ATCC #CRL-1435); conditions: cellular activity, HGF-stimulated, phospho-Met ELISA, read-out: c-Met IC50
Procedure, shortened: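 Phospho-Met (panTyr) sandwich ELISA on lysates of PC-3 cells given 100 ng/mL HGF for 10 min after 1 h compound exposure (8-point curve, 0.3% DMSO) following 3 h serum starvation. Normalised to HGF-stimulated DMSO and reference-inhibitor wells; 4-parameter logistic IC50.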
Target sequence in this assay (P08581 25-1390): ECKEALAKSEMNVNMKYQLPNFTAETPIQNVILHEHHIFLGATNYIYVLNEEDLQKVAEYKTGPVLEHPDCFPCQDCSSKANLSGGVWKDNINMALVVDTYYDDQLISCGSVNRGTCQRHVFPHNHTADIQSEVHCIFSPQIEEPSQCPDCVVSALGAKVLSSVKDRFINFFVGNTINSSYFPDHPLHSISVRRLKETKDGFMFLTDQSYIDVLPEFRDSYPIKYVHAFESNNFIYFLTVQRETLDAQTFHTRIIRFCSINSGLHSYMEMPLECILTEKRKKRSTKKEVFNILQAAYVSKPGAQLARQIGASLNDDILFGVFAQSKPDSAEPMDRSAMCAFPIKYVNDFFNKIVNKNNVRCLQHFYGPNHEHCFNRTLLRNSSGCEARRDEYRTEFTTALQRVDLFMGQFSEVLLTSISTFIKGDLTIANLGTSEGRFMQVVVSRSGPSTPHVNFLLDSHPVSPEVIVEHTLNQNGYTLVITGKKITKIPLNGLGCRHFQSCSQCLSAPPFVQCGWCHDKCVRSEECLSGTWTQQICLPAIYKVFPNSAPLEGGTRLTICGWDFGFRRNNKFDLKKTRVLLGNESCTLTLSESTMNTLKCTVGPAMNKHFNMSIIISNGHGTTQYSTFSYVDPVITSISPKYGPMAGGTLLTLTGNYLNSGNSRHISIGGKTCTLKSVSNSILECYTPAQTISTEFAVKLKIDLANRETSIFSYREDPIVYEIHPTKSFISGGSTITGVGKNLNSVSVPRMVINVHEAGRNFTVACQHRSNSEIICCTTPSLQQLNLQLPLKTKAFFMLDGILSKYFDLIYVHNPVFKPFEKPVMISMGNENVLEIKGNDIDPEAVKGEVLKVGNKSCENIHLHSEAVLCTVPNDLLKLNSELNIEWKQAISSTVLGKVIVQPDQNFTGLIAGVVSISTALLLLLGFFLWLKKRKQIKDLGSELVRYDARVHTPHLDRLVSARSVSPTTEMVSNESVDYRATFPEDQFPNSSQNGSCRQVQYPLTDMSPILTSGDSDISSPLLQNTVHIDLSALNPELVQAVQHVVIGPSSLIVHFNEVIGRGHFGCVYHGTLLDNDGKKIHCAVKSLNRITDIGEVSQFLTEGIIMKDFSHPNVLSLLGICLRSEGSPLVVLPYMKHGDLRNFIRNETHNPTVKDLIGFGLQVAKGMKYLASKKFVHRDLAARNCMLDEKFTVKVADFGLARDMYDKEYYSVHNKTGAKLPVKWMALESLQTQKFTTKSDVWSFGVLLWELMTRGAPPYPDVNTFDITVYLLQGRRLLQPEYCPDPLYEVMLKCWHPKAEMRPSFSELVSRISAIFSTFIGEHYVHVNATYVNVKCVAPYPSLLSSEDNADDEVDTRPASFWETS

Met [2] = target: T2, Met; assay: Human Met kinase assay (33P-phosphoryl transfer radiometric, KinaseProfiler); parameters: Human Met (residues R974-S1390 with A1209G and V1290L, 3.4 nM); purchased Eurofins Pharma Discovery Services UK Limited (KinaseProfiler service); conditions: biochemical activity; 10 μM ATP; read-out: c-Met IC50
Target sequence in this assay (P08581 974-1390): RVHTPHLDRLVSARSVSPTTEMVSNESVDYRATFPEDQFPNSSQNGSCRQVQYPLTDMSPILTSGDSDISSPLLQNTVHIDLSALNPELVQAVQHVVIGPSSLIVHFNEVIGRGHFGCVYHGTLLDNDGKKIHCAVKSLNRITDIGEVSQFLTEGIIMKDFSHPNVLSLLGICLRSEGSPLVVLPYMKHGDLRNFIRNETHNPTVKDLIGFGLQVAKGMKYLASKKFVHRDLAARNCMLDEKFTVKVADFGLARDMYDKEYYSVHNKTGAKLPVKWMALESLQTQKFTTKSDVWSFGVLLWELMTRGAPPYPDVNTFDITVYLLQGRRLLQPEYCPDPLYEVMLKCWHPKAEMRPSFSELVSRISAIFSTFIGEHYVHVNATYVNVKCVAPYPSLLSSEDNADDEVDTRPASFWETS

SMILES	IC50 (Human Mer) [nM]	IC50 (Met [1]) [nM]	IC50 (Met [2]) [nM]
O=C(Nc1ccc(F)cc1)C1(C(=O)Nc2ccc(Oc3ccnc4cc(-c5ccn(C(F)F)n5)ccc34)cc2)CC1 [Compound 84, 1-N-[4-[7-[1-(Difluoromethyl)pyrazol-3-yl]quinolin-4-yl]oxyphenyl]-1-N′-(4-fluorophenyl)cyclopropane-1,1-dicarboxamide]	≤ 10	10 to 100	10 to 100
O=C(Nc1ccc(F)cc1)C1(C(=O)Nc2ccc(Oc3ccnc4cc(-c5ccccn5)ccc34)cc2)CC1 [Compound 85, 1-N′-(4-Fluorophenyl)-1-N-[4-(7-pyridin-2-ylquinolin-4-yl)oxyphenyl]cyclopropane-1,1-dicarboxamide]	≤ 10	10 to 100	10 to 100
Cn1ncc(-c2ccc3c(Oc4ccc(NC(=O)C5(C(=O)Nc6ccc(F)cc6)CC5)cc4)ccnc3c2)n1 [Compound 86, 1-N′-(4-Fluorophenyl)-1-N-[4-[7-(2-methyltriazol-4-yl)quinolin-4-yl]oxyphenyl]cyclopropane-1,1-dicarboxamide]	≤ 10	10 to 100	≤ 10
